Data from patent publication US20190166840A1, “SUBSTITUTED PYRAZOLINYL DERIVATIVES, PROCESSES FOR THEIR PREPARATION AND THEIR USE AS HERBICIDES AND/OR PLANT GROWTH REGULATORS” (BAYER CROPSCIENCE AKTIENGESELLSCHAFT, priority 2016, published 2019).

The compounds below were run against T1, photosystem II (PS II) (Spinacia oleracea, UniProt P69560) (assay: Activity determination of photosystem II (PS II) in thylakoid membranes, DCPIP reduction). Conditions: spinach thylakoid membranes, DCPIP 120 μM, 10 min at 22° C. with illumination; read-out: pI50 (converted).
T1 construct: the chloroplasts were osmotically ruptured and the thylakoid membranes were then obtained by centrifugation; from tissue; host or cells: spinach leaves (thylakoid membrane preparation)
Format: biochemical
Method: Measurement of PS II Activity in Thylakoid Membranes
1. Preparation of the Thylakoid Membranes
Cooled fresh spinach leaves were comminuted and homogenized in 50 mM phosphate buffer, pH 6.8, 10 mM KCl, 0.34 M sucrose (sucrose buffer) (mixer, 1 g of plant material/ml). The homogenate was subsequently filtered through 4 layers of Miracloth and the chloroplasts were obtained by centrifugation: • 10 minutes (min) of centrifugation at 4400×g (4° C.). • The sediment was suspended in 25 ml of sucrose buffer and centrifuged for another 10 min at 4400×g (4° C.). • The sediment was then suspended in 40 ml of 50 mM phosphate buffer, pH 6.8, 10 mM KCl, without sucrose. • In this step, the chloroplasts were osmotically ruptured and the thylakoid membranes were then obtained by centrifugation (10 min, 4400×g, 4° C.). The membrane sediment was finally suspended in about 20 ml of 50 mM phosphate buffer, pH 6.8, 10 mM KCl. • After protein determination and activity determination, the membrane suspension was aliquoted and frozen in liquid nitrogen. The aliquots were stored at −80° C. Under these conditions, the photosystem II preparation is storage-stable for at least three months.
2. Activity Determination of the Photosystem II (PS II)
The electron transfer from PS II to an artificial electronic captor, 2,6-dichlorophenol-indophenol (DCPIP), is measured under the action of light. The concentration of the blue oxidized form of DCPIP can be determined spectraphotometrically at the wavelength l=595 nm. The enzyme-catalyzed reduction of DCPIP results in a colourless leuco form and thus to a decrease of absorption at 595 nm in the reaction batch, which is measured as a function of time.
The activity determination was carried out in microtiter plates (96 wells) in a reaction volume of 200 μl. 155 μl of dilute membrane suspension in 50 mM phosphate buffer, pH 6.8, 10 mM KCl were initially charged. Depending on the activity of the PS II preparation, the dilution was adjusted such that measurement of the decrease in absorption (λ=595 nm) was linear for at least 10 min.
Typical dilution series of the test compounds comprised 10 concentration steps in the range between 10^−9and 10^−5 M.
On each microtiter plate, a known PS II inhibitor, e.g. metribuzin, was used as standard for assessing the quality of the PS II test.
The reaction was initiated by addition of 40 μl DCPIP solution (600 μM in distilled water); the final concentration of DCPIP was 120 μM.
Absorption was measured over a period of 10 min at 22° C. and with illumination. For calculating the active compound concentration at which 50% of the enzyme activity is inhibited (IC50), the relative enzymatic activity (in %) was plotted as a function of the logarithm of the active compound concentration.

SMILES | IC50 [µM]
CC1=C(C)C(O)N(C2=NN(c3ccccc3)C(C(F)(F)F)C2)C1=O (stereo not drawn) [I.2-1413] | 5.01

What follows are compounds tested on Veronica persica (assay: Pre-emergence herbicidal action, VERPE). Conditions: application rate 1280 g/ha, scored visually after about 3 weeks.
Format: in vivo
Excerpt: Pre-Emergence Herbicidal Action Seeds of mono- and dicotyledonous weed plants or crop plants were placed in sandy loam in wood fibre pots and covered with soil. The formulated compounds of the general formula (I) according to the invention were then applied to the surface of the covering soil in the form of an aqueous suspension or emulsion at an application rate of 600 l of water/ha (converted) with addition of 0.2% wetting agent. After the treatment, the pots were placed in a greenhouse and kept under good growth conditions for the test plants. After about 3 weeks, the effect was scored visually in percent in comparison to untreated controls. For example, 100% activity=the plants have died, 50% herbicidal activity or damage=plants reduced to 50% or plant material reduced by 50%, 0% activity=like control plants. Here, in the biological tests, the compounds of the general formula (I) according to the invention were in each case employed in a formulation, with the numerations of Tables I.1 to I.77 also applying here. Here, the herbicidal action of the compounds of the general formula (I) according to the invention was examined for the following harmful plants: VERPE=Veronica persica The respective herbicidal action was in each case determined at the same point in time after application of the formulation in question, i.e. damage of the harmful plant in question in %. Pre-emergence herbicidal action of the compounds of the general formula (I) according to the invention: […]

SMILES | Pre-emergence herbicidal action VERPE, damage of the harmful plant [%]
CC1=C(C)C(O)N(C2=NN(c3ccccn3)C(C)(C)C2)C1=O (stereo not drawn) [I.2-132] | 30
CCC(=O)OC1C(C)=C(C)C(=O)N1C1=NN(c2ccccn2)C(C)(C)C1 (stereo not drawn) [I.23-132] | 60
CCC(=O)OC1C(C)=C(C)C(=O)N1C1=NN(c2ccccc2)CC1 (stereo not drawn) [I.23-621] | 0
CCC(=O)OC1C(C)=C(C)C(=O)N1C1=NN(c2ccccc2)C(C(F)(F)F)C1 (stereo not drawn) [I.23-1413] | 60
CCC(=O)OC1C(C)=C(Cl)C(=O)N1C1=NN(C)C(c2ccccc2)C1 (stereo not drawn) [I.24-1126] | 0
